This experiment relates to Mus musculus. Description: Relative topical anti inflammatory activity was measured in mice by comparing with cumulative potency of betamethasone valerate by using croton oil ear assay. The format is functional.
With `CCC(=O)OCC(=O)[C@@]1(OC(=O)CC)[C@@H](C)CC2C3C(C(O)C[C@@]21C)[C@@]1(C)C=CC(=O)C=C1C[C@H]3Br` (some centres not stated), the Potency came out at 186.
Turning to `CC(=O)OCC(=O)[C@@]1(O)[C@@H](C)CC2C3C(C(O)C[C@@]21C)[C@@]1(C)C=CC(=O)C=C1C[C@H]3Cl` (some centres not stated), the Potency came to 81.
The value for `CCC(=O)OCC(=O)[C@@]1(OC(=O)CC)[C@H](C)CC2C3C(C(O)C[C@@]21C)[C@@]1(C)C=CC(=O)C=C1C[C@H]3F` (some centres not stated) was 78; that for `CC(=O)OCC(=O)[C@@]1(O)[C@H](C)CC2C3C(C(O)C[C@@]21C)[C@@]1(C)C=CC(=O)C=C1C[C@H]3Br` (some centres not stated) was 20; that for `CCC(=O)OCC(=O)[C@@]1(OC(=O)CC)[C@@H](C)CC2C3C(C(O)C[C@@]21C)[C@@]1(C)C=CC(=O)C=C1C[C@H]3I` (some centres not stated) was 103.
On to `CC(=O)OCC(=O)[C@@]1(O)[C@@H](C)CC2C3C=CC4=CC(=O)C=C[C@]4(C)C3C(O)C[C@@]21C` (some centres not stated), for which the Potency stood at 29.
As for `CCC(=O)OCC(=O)[C@@]1(OC(=O)CC)[C@H](C)CC2C3CCC4=CC(=O)C=C[C@]4(C)C3C(O)C[C@@]21C` (some centres not stated), the Potency worked out at 74.
`CCC(=O)OCC(=O)[C@@]1(OC(=O)CC)[C@H](C)CC2C3C(C(O)C[C@@]21C)[C@@]1(C)C=CC(=O)C=C1C[C@H]3Br` (some centres not stated) returned a Potency of 120.
Regarding `CCC(=O)OCC(=O)[C@@]1(OC(=O)CC)[C@@H](C)CC2C3C(C(O)C[C@@]21C)[C@@]1(C)C=CC(=O)C=C1C[C@H]3F` (some centres not stated), the Potency worked out at 69.
With `CCC(=O)OCC(=O)[C@@]1(OC(=O)CC)[C@H](C)CC2C3C=CC4=CC(=O)C=C[C@]4(C)C3C(O)C[C@@]21C` (some centres not stated), the Potency came out at 27.
`CCC(=O)OCC(=O)[C@@]1(OC(=O)CC)[C@@H](C)CC2C3C=CC4=CC(=O)C=C[C@]4(C)C3C(O)C[C@@]21C` (some centres not stated) gave a Potency of 57.
As for `CCC(=O)OCC(=O)[C@@]1(OC(=O)CC)[C@H](C)CC2C3C(C(O)C[C@@]21C)[C@@]1(C)C=CC(=O)C=C1C[C@H]3I` (some centres not stated), the Potency was found to be 36.
In the case of `CC(=O)OCC(=O)[C@@]1(O)[C@H](C)CC2C3C=CC4=CC(=O)C=C[C@]4(C)C3C(O)C[C@@]21C` (some centres not stated) it was 4; in that of `CC(=O)OCC(=O)[C@@]1(O)[C@@H](C)CC2C3C(C(O)C[C@@]21C)[C@@]1(C)C=CC(=O)C=C1C[C@H]3Br` (some centres not stated), 94.
For `CC(=O)OCC(=O)[C@@]1(O)[C@H](C)CC2C3CCC4=CC(=O)C=C[C@]4(C)C3C(O)C[C@@]21C` (some centres not stated), the Potency was found to be 10.
`CCC(=O)OCC(=O)[C@@]1(OC(=O)CC)[C@@H](C)CC2C3CCC4=CC(=O)C=C[C@]4(C)C3C(O)C[C@@]21C` (some centres not stated) had a Potency of 76.
With `CC(=O)OCC(=O)[C@@]1(O)[C@@H](C)CC2C3C(C(O)C[C@@]21C)[C@@]1(C)C=CC(=O)C=C1C[C@H]3I` (some centres not stated), the Potency is given as 54.
The value for `CC(=O)OCC(=O)[C@@]1(O)[C@@H](C)CC2C3C(C(O)C[C@@]21C)[C@@]1(C)C=CC(=O)C=C1C[C@H]3F` (some centres not stated) was 16.
Molecule `CC(=O)OCC(=O)[C@@]1(O)[C@@H](C)CC2C3CCC4=CC(=O)C=C[C@]4(C)C3C(O)C[C@@]21C` (some centres not stated) showed a Potency of 26.
In the case of `CC(=O)OCC(=O)[C@@]1(O)[C@H](C)CC2C3C(C(O)C[C@@]21C)[C@@]1(C)C=CC(=O)C=C1C[C@H]3Cl` (some centres not stated) it was 32; in that of `CCC(=O)OCC(=O)[C@@]1(OC(=O)CC)[C@@H](C)C[C@H]2[C@@H]3CCC4=CC(=O)C=C[C@]4(C)[C@@]3(F)[C@@H](O)C[C@@]21C` [BETAMETHASONE DIPROPIONATE], 165.
For the molecule `CCCCC(=O)O[C@]1(C(=O)CO)[C@@H](C)C[C@H]2[C@@H]3CCC4=CC(=O)C=C[C@]4(C)[C@@]3(F)[C@@H](O)C[C@@]21C` [BETAMETHASONE VALERATE], the Potency was found to be 100.
